This assay has as its target human phosphoglucose isomerase (hPGI) / autocrine motility factor (Homo sapiens, UniProt P06744). The assay can be described thus: end-point isomerization kinetics. The class given is biochemical.

Each structure is given as a SMILES string.

Regarding `O=C(O)[C@H](O)[C@@H](O)[C@H](O)[C@H](O)COP(=O)(O)O` [6P-GA, 6-phosphogluconate], the Ki amounted to 12 µM.

In general, Ki refers to the equilibrium dissociation constant of an inhibitor or competing ligand from its target. A lower Ki goes with a stronger hold on the target.
